Test [1] relates to Rattus norvegicus. Put plainly: Antithyroid activity in Rattus norvegicus Wistar (rat) assessed as little colloid material in epithelium of thyroid gland at 20 mg/kg, ip for 21 days by microscopic analysis. The format is functional, organism-based. Also on record: dose 20 mg/kg.
The test system of test [2] is Rattus norvegicus. Kind of test: Antithyroid activity in Rattus norvegicus Wistar (rat) assessed as cylindrical follicles in thyroid gland at 20 mg/kg, ip for 21 days by microscopic analysis. The class given is functional, organism-based. Details: dose 20 mg/kg.
The test system of test [3] is Rattus norvegicus. Kind of test: Antithyroid activity in Rattus norvegicus Wistar (rat) assessed as free thyroxin(T4) level in serum at 20 mg/kg, ip for 21 days measured after 21 days by radioimmunoassay (reference value: 33.171 +/- 0.474 pmol/l). The format is functional. As to conditions: route intraperitoneal.
The test system of test [4] is Rattus norvegicus. Put plainly: Antithyroid activity in Rattus norvegicus Wistar (rat) assessed as thyroid stimulating hormone level in serum at 20 mg/kg, ip for 21 days measured after 21 days by ELISA (reference value: 1.83 +/- 0.307 microi.u/ml). The format is functional. As to conditions: route intraperitoneal.
Test [5] concerns Rattus norvegicus. Kind of test: Antithyroid activity in Rattus norvegicus Wistar (rat) assessed as free triiodothyronine(T3) level in serum at 20 mg/kg, ip for 21 days measured after 21 days by radioimmunoassay (reference value: 8.007 +/- 0.167 pmol/l). The format is functional. The conditions noted are these: route intraperitoneal.
Test [6] can be described thus: Binding affinity to iodine assessed as compound-iodine complex formation by spectrophotometry.

Structures are written as SMILES. Active and inactive are the calls of the source. No cut-off for these calls is given here.

Turning to `Cn1ccnc1S` [METHIMAZOLE], the result in test [1] and in test [2] was Active. Moreover, the Activity in test [3] was found to be 25.096 pmol/L; in test [4], 6.014 uIU/ml; in test [5] it was 5.162 pmol/L.

Take `Oc1[nH]c(S)nc2nc(S)nc1-2`: the outcome in test [1], in test [2] and in test [6] was Active. The results for the Activity in test [3], in test [4] and in test [5] were 20.086 pmol/L, 8.126 uIU/ml and 4.418 pmol/L, respectively.

The record behind these values is ChEMBL document CHEMBL3046151, “Assessment of antithyroid activity of 2,8-disulfanyl-1,9-dihydro-6H-purin-6-one in vitro and in vivo” (2012).
